Reference: patent US9951064B2, “Azaindazole compounds as inhibitors of T790M containing EGFR mutants” (Genentech, Inc., priority 2013, dated 2018)

Columns and labels:
EGFR T790M L858R = molecular target: T1, EGFR T790M L858R (Homo sapiens, UniProt P00533, L858R/T790M); assay: EGFR T790M L858R biochemical assay (Caliper mobility shift); settings: 5 μM ATP; apparent Ki (Morrison fit) converted by Cheng-Prusoff, Km of ATP 1.3 μM
T1 construct: purchased Life Technologies PV4879
Method in brief: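 Reactions run 30 minutes at room temperature (22 °C), stopped with 80 mM EDTA. Phosphorylated product and substrate separated electrophoretically and quantified by Caliper mobility shift.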

EGFR del746-750 T790M = molecular target: T2, EGFR del746-750 T790M (Homo sapiens, UniProt P00533, DEL746-750/T790M); assay: EGFR del746-750 T790M biochemical assay (Caliper mobility shift); settings: 5 μM ATP; apparent Ki (Morrison fit) converted by Cheng-Prusoff, Km of ATP 2.1 μM; read-out: EGFR(T790M/d746-750) Ki
T2 construct: purchased Carna Biosciences 08-528
Method in brief: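 Kinase reactions ran 30 min at room temperature (22 °C), then were stopped with 80 mM EDTA. Phosphorylated product and substrate were separated electrophoretically and quantified by Caliper mobility shift.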

[1] = molecular target: T3, phosphor-EGFR in H1975(L585R/T790M) mutant EGFR expressing cells (Homo sapiens, UniProt P00533, L858R/T790M); assay: H1975 pEGFR MSD cellular assay; format: cell-based; settings: NCI-H1975 cells, serum starved, 1 hour compound incubation, pEGFR Tyr1068 MSD; read-out: HI975 pEGFR EC50
T3 construct: host or cells: NCI-H1975
Method in brief: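 NCI-H1975 cells, 30,000/well, serum-starved overnight, then treated 1 hour at 37° C with serially diluted compounds in serum-free medium (0.5% DMSO). Lysates captured on anti-phospho-EGFR plates overnight at 4° C, detected with SULFO-TAG anti-total EGFR by electrochemiluminescence. Inhibition vs untreated controls; EC50 from 4-parameter logistic fit.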

[2] = system: H1975 (EGFR T790M/L858R) cell proliferation; assay: H1975 proliferation assay (Cell Titer-Glo); format: cell-based; settings: Homo sapiens, NCI-H1975, 72 h, NCI-H1975 cells, 72 hour incubation, read-out: H1975 antiproliferative EC50
Protocol: H1975 Proliferation Assays
All cell culture reagents were purchased from Invitrogen/Gibco. Cells are cultured at 37° C. at 5% CO2 and split as recommended by ATCC.

T1 sequence (P00533 25-1210 T790M/L858R): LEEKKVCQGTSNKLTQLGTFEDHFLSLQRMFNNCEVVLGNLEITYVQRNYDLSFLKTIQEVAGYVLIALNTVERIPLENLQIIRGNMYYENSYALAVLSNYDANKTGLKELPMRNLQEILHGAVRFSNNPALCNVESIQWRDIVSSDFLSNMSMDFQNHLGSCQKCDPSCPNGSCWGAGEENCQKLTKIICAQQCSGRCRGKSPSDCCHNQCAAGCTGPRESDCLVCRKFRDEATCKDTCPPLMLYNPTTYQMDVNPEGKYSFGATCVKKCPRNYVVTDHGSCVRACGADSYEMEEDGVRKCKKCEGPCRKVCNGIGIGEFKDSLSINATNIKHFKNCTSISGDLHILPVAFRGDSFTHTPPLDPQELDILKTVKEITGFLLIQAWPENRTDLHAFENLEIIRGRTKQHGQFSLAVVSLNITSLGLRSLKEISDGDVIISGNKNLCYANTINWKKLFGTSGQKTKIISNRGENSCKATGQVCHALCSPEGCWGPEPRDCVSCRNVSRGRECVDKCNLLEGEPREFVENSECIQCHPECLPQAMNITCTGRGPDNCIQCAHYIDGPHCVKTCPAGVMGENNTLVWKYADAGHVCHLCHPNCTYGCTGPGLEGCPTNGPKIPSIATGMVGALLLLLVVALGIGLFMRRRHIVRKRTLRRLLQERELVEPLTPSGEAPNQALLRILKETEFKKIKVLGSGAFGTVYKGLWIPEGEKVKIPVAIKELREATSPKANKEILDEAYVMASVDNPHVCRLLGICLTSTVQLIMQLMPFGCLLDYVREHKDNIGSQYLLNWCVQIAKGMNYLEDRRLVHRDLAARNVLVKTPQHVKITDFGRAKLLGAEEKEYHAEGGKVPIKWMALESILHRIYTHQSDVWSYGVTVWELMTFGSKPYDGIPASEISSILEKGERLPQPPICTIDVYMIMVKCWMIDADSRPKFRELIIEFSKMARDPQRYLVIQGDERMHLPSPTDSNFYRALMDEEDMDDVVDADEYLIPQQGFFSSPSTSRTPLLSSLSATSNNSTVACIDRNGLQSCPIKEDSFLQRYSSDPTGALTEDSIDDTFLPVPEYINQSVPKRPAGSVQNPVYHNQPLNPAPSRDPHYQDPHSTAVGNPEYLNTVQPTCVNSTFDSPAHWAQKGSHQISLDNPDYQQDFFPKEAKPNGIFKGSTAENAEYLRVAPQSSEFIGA
T3 sequence (P00533 25-1210 T790M/L858R): as above
T2 sequence (P00533 with tags, fused parts or gaps DEL746-750/T790M limits assumed): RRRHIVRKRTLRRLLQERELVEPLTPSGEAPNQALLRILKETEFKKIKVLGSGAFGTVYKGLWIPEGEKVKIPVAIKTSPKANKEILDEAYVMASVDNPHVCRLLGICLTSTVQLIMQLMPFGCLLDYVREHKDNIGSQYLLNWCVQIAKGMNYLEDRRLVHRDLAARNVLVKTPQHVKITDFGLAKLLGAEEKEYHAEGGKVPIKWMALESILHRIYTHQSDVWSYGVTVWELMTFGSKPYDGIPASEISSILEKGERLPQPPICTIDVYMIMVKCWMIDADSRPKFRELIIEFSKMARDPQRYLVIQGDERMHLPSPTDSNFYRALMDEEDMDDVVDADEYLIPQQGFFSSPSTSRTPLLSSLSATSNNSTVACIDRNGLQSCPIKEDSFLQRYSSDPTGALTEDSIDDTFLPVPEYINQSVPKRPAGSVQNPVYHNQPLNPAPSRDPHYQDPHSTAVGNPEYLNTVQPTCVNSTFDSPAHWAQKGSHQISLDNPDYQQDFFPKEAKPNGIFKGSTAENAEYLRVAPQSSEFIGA

Structure (SMILES)	Ki (EGFR T790M L858R) [nM]	Ki (EGFR del746-750 T790M) [nM]	EC50 [1] [nM]	EC50 [2] [nM]
CCC(C)n1nc(N2CCNC2=O)c2cnc(Nc3ccnc(N4CC[C@H](O)[C@H](F)C4)n3)cc21 (stereo partly drawn) [Example 195, 1-(1-(sec-Butyl)-6-((2-((3R,4S)-3-fluoro-4-hydroxypiperidin-1-yl)pyrimidin-4-yl)amino)-1H-pyrazolo[4,3-c]pyridin-3-yl)imidazolidin-2-one]	1	3.1	44.9	208
CCC(C)n1nc(N2CC[C@@H](O)C2)c2cnc(Nc3ccnc(N4CC[C@H](O)[C@H](F)C4)n3)cc21 (stereo partly drawn) [Example 196, (3R,4S)-1-(4-((1-(sec-Butyl)-3-((R)-3-hydroxypyrrolidin-1-yl)-1H-pyrazolo[4,3-c]pyridin-6-yl)amino)pyrimidin-2-yl)-3-fluoropiperidin-4-ol]	0.9	1.1	12.5	263
CCC(C)n1nc(N2CCCC2=O)c2cnc(Nc3ccnc(N4CC[C@@H](O)[C@@H](F)C4)n3)cc21 (stereo partly drawn) [Example 200, 1-(1-(sec-Butyl)-6-((2-((3S,4R)-3-fluoro-4-hydroxypiperidin-1-yl)pyrimidin-4-yl)amino)-1H-pyrazolo[4,3-c]pyridin-3-yl)pyrrolidin-2-one]	1.2	2.6	75.4	300
CCC(C)n1nc(N2CC3(COC3)C2)c2cnc(Nc3ccnc(N4CCC(C)(O)CC4)n3)cc21 (centres unmarked) [Example 202, 1-(4-((1-(sec-Butyl)-3-(2-oxa-6-azaspiro[3.3]heptan-6-yl)-1H-pyrazolo[4,3-c]pyridin-6-yl)amino)pyrimidin-2-yl)-4-methylpiperidin-4-ol]	2.8	4.8	141	881
CCC(C)n1nc(N2CC[C@@H](O)C2)c2cnc(Nc3ccnc(N4CCC(C)(O)CC4)n3)cc21 (stereo partly drawn) [Example 203, 1-(4-((1-(sec-Butyl)-3-((R)-3-hydroxypyrrolidin-1-yl)-1H-pyrazolo[4,3-c]pyridin-6-yl)amino)pyrimidin-2-yl)-4-methylpiperidin-4-ol]	1.5	2.1	77	619
CCC(C)n1nc(N2CCCC2=O)c2cnc(Nc3ccnc(N4CCC(C)(O)CC4)n3)cc21 (centres unmarked) [Example 204, 1-(1-(sec-Butyl)-6-((2-(4-hydroxy-4-methylpiperidin-1-yl)pyrimidin-4-yl)amino)-1H-pyrazolo[4,3-c]pyridin-3-yl)pyrrolidin-2-one]	2.2	4.5	224	569
CC(C)n1nc(N2CC[C@@H](O)C2)c2cnc(Nc3ccnc(N4CCC(C)(O)CC4)n3)cc21 [Example 205, (R)-1-(4-((3-(3-Hydroxypyrrolidin-1-yl)-1-isopropyl-1H-pyrazolo[4,3-c]pyridin-6-yl)amino)pyrimidin-2-yl)-4-methylpiperidin-4-ol]	2.7	9	287	831
CCC(C)n1nc(N2CC[C@@H](O)C2)c2cnc(Nc3ccnc(N4CCC(S(C)(=O)=O)CC4)n3)cc21 (stereo partly drawn) [Example 206, (3R)-1-(1-(sec-Butyl)-6-((2-(4-(methylsulfonyl)piperidin-1-yl)pyrimidin-4-yl)amino)-1H-pyrazolo[4,3-c]pyridin-3-yl)pyrrolidin-3-ol]	1.9	8.9	298	1110
